Data set [1] has as its system Human immunodeficiency virus 1. The data set is described as follows: Antiviral activity against HIV1 3B in H9 cells after 4 days by p24-antigen ELISA. Format: functional, organism-based. As to conditions: for EC50: Human immunodeficiency virus 1, 3B, H9, 96 h.
Data set [2] is described as follows: Therapeutic index, ratio of IC50 for human H9 cells to EC50 for HIV1 3B. Format: cell-based. As to conditions: read-out: Ratio IC50/EC50.
The subject of data set [3] is H9. Description: Cytotoxicity against human H9 cells after 4 days. It counts as cell-based. The settings on record: H9, 96 h.

Activity calls are given as the source filed them. The rule behind the calls is not given here.

The results in this text go back to ChEMBL document CHEMBL1158123, “Rubrisandrins A and B, lignans and related anti-HIV compounds from Schisandra rubriflora” (J Nat Prod, 2006).

As to `C/C=C(/C)C(=O)O[C@H]1c2cc(OC)c(OC)c(OC)c2-c2c(cc3c(c2OC)OCO3)C[C@H](C)[C@]1(C)O` [SCHISANTHERIN B], in data set [1], it took 40 µM to reach a half-maximal effect (EC50). Moreover, in data set [2], the selectivity ratio was found to be 1.2. In data set [3], this molecule came in with an IC50 above 49 µM.
In data set [1], `Cc1cn([C@H]2C[C@H](N=[N+]=[N-])[C@@H](CO)O2)c(=O)[nH]c1=O` [ZIDOVUDINE] displayed an EC50 of 0.023 µM. In other words, the double-digit nanomolar range.
As for `COc1cc2c(c(OC)c1OC)-c1c(cc(OC)c(OC)c1OC)C[C@H](C)[C@@H](C)C2` [DEOXYSCHISANDRIN], in data set [1], the outcome was inactive. This molecule also came in with an IC50 in data set [3] above 60 µM.
As to `COc1cc2c(c(O)c1OC)-c1c(cc(OC)c(OC)c1OC)C[C@@H](C)[C@@H](C)C2` [SCHISANHENOL], it took 5.7 µM to reach a half-maximal effect in data set [1] (EC50). The selectivity ratio in data set [2] was found to be 7.4. The concentration for half-maximal inhibition (IC50) in data set [3] came to 42 µM.
For `COc1cc2c(c(OC)c1OC)-c1c(cc3c(c1O)OCO3)C[C@H](C)[C@H](C)C2`, in that order: 2.4 µM, 19.4 and 47.1 µM.
The molecule `C/C=C(\C)C(=O)O[C@@H]1c2cc(OC)c(OC)c(OC)c2-c2c(cc3c(c2OC)OCO3)C[C@H](C)[C@@]1(C)O` [TIGLOYLGOMISIN P] returned an EC50 in data set [1] of 37 µM. Besides, the selectivity ratio in data set [2] turned out to be 1.3. For the same molecule, the IC50 in data set [3] is above 49 µM.
Consider `C/C=C(/C)C(=O)O[C@@H]1c2cc(OC)c(OC)c(OC)c2-c2c(cc3c(c2OC)OCO3)C[C@H](C)[C@@]1(C)O` [ANGELOYLGOMISIN P], for which the result in data set [1] was inactive. The molecule further displayed an IC50 in data set [3] above 49 µM.
`COc1cc2c(c(O)c1OC)-c1c(cc3c(c1OC)OCO3)C[C@H](C)[C@H](C)C2` (racemic) showed a half-maximal effective concentration (EC50) in data set [1] below 0.65 µM. Moreover, in data set [2], the selectivity ratio was above 68. In data set [3], this molecule showed an IC50 of 44.5 µM.
Regarding `COc1cc2c(c(OC)c1OC)-c1c(cc(OC)c(OC)c1OC)C[C@](C)(O)[C@@H](C)C2` [SCHIZANDRIN], in data set [1], the result was inactive. In addition, in data set [3], the IC50 was above 58 µM.
